Test results: PubChem BioAssay (NCI)
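Tested at 5 concentrations; 48 h exposure; 96-well plates; endpoints linearly interpolated, else capped at highest concentration. At the GI50, growth is halved. At the TGI there is no net growth.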

Assays:
Assay in all cases: growth of human tumour cells (NCI), 48 h
MDA-MB-468 breast = test system: MDA-MB-468 breast
ACHN renal = test system: ACHN renal
PC-3 prostate = test system: PC-3 prostate
MDA-MB-435 = test system: MDA-MB-435
MDA-MB-231 breast = test system: MDA-MB-231 breast
SNB-75 CNS = test system: SNB-75 CNS
BT-549 breast = test system: BT-549 breast
SF-539 CNS = test system: SF-539 CNS
MALME-3M melanoma = test system: MALME-3M melanoma
RXF 393 renal = test system: RXF 393 renal
KM12 colon = test system: KM12 colon
UACC-257 melanoma = test system: UACC-257 melanoma
TK-10 renal = test system: TK-10 renal
HL-60(TB) leukemia = test system: HL-60(TB) leukemia
OVCAR-4 ovarian = test system: OVCAR-4 ovarian
SN12C renal = test system: SN12C renal
NCI-H226 lung = test system: NCI-H226 lung
HCT-15 colon = test system: HCT-15 colon
U251 CNS = test system: U251 CNS
A498 renal = test system: A498 renal
HOP-62 NSCLC = test system: HOP-62 NSCLC
EKVX NSCLC = test system: EKVX NSCLC
CAKI-1 renal = test system: CAKI-1 renal
SF-295 CNS = test system: SF-295 CNS
COLO 205 colon = test system: COLO 205 colon
NCI-H460 lung = test system: NCI-H460 lung
HS 578T breast = test system: HS 578T breast
786-0 renal = test system: 786-0 renal
DU-145 prostate = test system: DU-145 prostate
SK-OV-3 ovarian = test system: SK-OV-3 ovarian
M14 melanoma = test system: M14 melanoma
OVCAR-5 ovarian = test system: OVCAR-5 ovarian
UACC-62 melanoma = test system: UACC-62 melanoma
MCF7 breast = test system: MCF7 breast
SNB-19 CNS = test system: SNB-19 CNS
SK-MEL-5 melanoma = test system: SK-MEL-5 melanoma
T-47D breast = test system: T-47D breast
LOX IMVI melanoma = test system: LOX IMVI melanoma
SK-MEL-2 melanoma = test system: SK-MEL-2 melanoma
SK-MEL-28 melanoma = test system: SK-MEL-28 melanoma
HCC-2998 colon = test system: HCC-2998 colon
K-562 leukemia = test system: K-562 leukemia
NCI/ADR-RES ovarian = test system: NCI/ADR-RES ovarian
HCT-116 colon = test system: HCT-116 colon
NCI-H522 lung = test system: NCI-H522 lung
HT29 colon = test system: HT29 colon
HOP-92 NSCLC = test system: HOP-92 NSCLC
CCRF-CEM leukemia = test system: CCRF-CEM leukemia
RPMI-8226 leukemia = test system: RPMI-8226 leukemia
OVCAR-8 ovarian = test system: OVCAR-8 ovarian
A549 NSCLC = test system: A549 NSCLC
OVCAR-3 ovarian = test system: OVCAR-3 ovarian
MOLT-4 leukemia = test system: MOLT-4 leukemia
NCI-H23 lung = test system: NCI-H23 lung
IGROV1 ovarian = test system: IGROV1 ovarian
SF-268 CNS = test system: SF-268 CNS
SW-620 colon = test system: SW-620 colon
UO-31 renal = test system: UO-31 renal

## O=C(Nc1ccc(F)cc1)c1c(NC(=O)C(F)(F)F)sc2c1CCCCC2
MDA-MB-468 breast
  GI50: 1.04 µM
  TGI: 4.85 µM

## NC1CCN(c2nc(Nc3cccc(C(F)(F)F)c3)c3c(=O)[nH]ccc3n2)CC1
MDA-MB-468 breast
  GI50: 1.49 µM
  TGI: 2.98 µM

## COC(=O)c1c2c(c(C)[n+]([O-])c1C)C(=O)C=C(NCc1ccc(F)c(F)c1)C2=O
MDA-MB-468 breast
  GI50: 0.242 µM
  TGI: 0.705 µM

## NC(=O)c1cc(Br)cc(C2CCCCC2)c1O
MDA-MB-468 breast
  GI50: 13.8 µM
  TGI: 29.2 µM

## Nc1nnc2cc(Cl)ccc2n1
MDA-MB-468 breast
  GI50: > 100 µM
  TGI: > 100 µM

## Cc1cc(CNC(=O)OCc2ccccc2)c(C)c2c1Oc1ccccc1O2
MDA-MB-468 breast
  GI50: 95.6 µM
  TGI: > 100 µM

## COc1ccc2c(Nc3ccc(NS(C)(=O)=O)cc3)c3ccccc3nc2c1
MDA-MB-468 breast
  GI50: 0.414 µM
  TGI: 1.74 µM

## CC(C)c1ccc(C(=O)Nc2sc3c(c2C#N)CCC(=O)C3)cc1
MDA-MB-468 breast
  GI50: 0.389 µM
  TGI: 2.4 µM

## CC(=O)[C@@H]1CCC=C2CC[C@]3(C)[C@@H](CC[C@@H]4[C@@]5(C)CCCNC(C)(C)[C@@H]5CC[C@]43C)[C@H]21
MDA-MB-468 breast
  GI50: 1.78 µM
  TGI: 3.43 µM

## Cc1nc2sc(C(=O)Nc3cccc4ccccc34)c(N)c2cc1C(=O)c1ccccc1
MDA-MB-468 breast
  GI50: 1.66 µM
  TGI: > 50 µM

## Cc1cc(C)c(C[N+](C)(C)C)c(C)c1C
MDA-MB-468 breast
  GI50: 0.495 µM
  TGI: 9.2 µM

## CC1=C[C@H]2c3c(c(O)c(O)c4oc5ccccc5c(=O)c34)[C@H](c3cc(O)c(O)c4oc5ccccc5c(=O)c34)[C@H]2C(C)(C)C1
MDA-MB-468 breast
  GI50: 2.02 µM
  TGI: 6.04 µM

## COc1cc(/C=C\[N+](=O)[O-])ccc1OCc1ccccc1
MDA-MB-468 breast
  GI50: 1.47 µM
  TGI: 3.26 µM

## N=C(N=C(N)N)N1CCN(c2ccncc2)CC1
MDA-MB-468 breast
  GI50: > 1000 µM
  TGI: > 1000 µM

## CCCCCCCCCCN(CCCCCCCCCC)CC(=O)c1ccc2cc(Br)c3ccccc3c2c1
MDA-MB-468 breast
  GI50: 1.7 µM
  TGI: 3.14 µM

## N#Cc1cnc2cc(OC[C@@H](O)CO)c(NC(=O)CC3CSSC3)cc2c1Nc1ccc(OCc2cccc(F)c2)c(Cl)c1
MDA-MB-468 breast
  GI50: 0.0698 µM
  TGI: 0.155 µM

## CC/C=C\C[C@H](O)C/C=C1/C(=O)C=C[C@@H]1C/C=C\CCCC(=O)N(C)C
MDA-MB-468 breast
  GI50: 1.43 µM
  TGI: 3.38 µM

## OCC1OC(n2ccc3c(NO)ncnc32)C(O)C1O (centres undefined)
MDA-MB-468 breast
  GI50: 0.122 µM
  TGI: 0.777 µM

## COCCOC(=O)NC(=O)Nc1ccc(/C(=N/O)c2ccc(Cl)cc2)cc1
MDA-MB-468 breast
  GI50: 0.0813 µM
  TGI: 0.616 µM

## Cn1c(=O)c(Oc2ccccc2F)cc2cnc(NC3CCOCC3)nc21
MDA-MB-468 breast
  GI50: > 25 µM
  TGI: > 25 µM

## O=[N+]([O-])c1ccc(N/N=C/c2c(O)ccc3ccccc23)nc1
MDA-MB-468 breast
  GI50: 4.47 µM
  TGI: 49.4 µM

## CCN1C(=S)N(CC)C2C1NC(=S)N2/N=C/C=C/c1ccccc1 (centres undefined)
MDA-MB-468 breast
  GI50: 0.458 µM
  TGI: 4.19 µM

## Clc1ccc2[nH]cc(-c3nc(-c4c[nH]c5ncccc45)cs3)c2c1
MDA-MB-468 breast
  GI50: 2.62 µM
  TGI: 9.41 µM

## ClC(Cl)c1nc(-c2cccnc2)n2nc(-c3ccccc3)cc2n1
MDA-MB-468 breast
  GI50: 0.247 µM
  TGI: 0.793 µM

## COC1CC2C=C(C)/C=C/C=C/C(=O)NC(c3ccccc3)C/C=C/CCC(O)CC(=O)C2=C1O (centres undefined)
MDA-MB-468 breast
  GI50: 0.283 µM
  TGI: 1.24 µM

## CN(C)CCCN1c2nc3ccccc3cc2Sc2cc3ccccc3nc21
MDA-MB-468 breast
  GI50: 1.65 µM
  TGI: 4.44 µM

## COc1ccc(/C=C/c2nc(NCCCN(C)C)c3ccccc3n2)cc1
MDA-MB-468 breast
  GI50: 1.31 µM
  TGI: 2.64 µM

## COc1ccc(-c2cc(/C=C3\C(=O)Nc4ccc(Cl)cc43)[nH]n2)cc1
MDA-MB-468 breast
  GI50: 3.6 µM
  TGI: 13.5 µM

## CCOC(=O)c1[nH]c(-c2ccc(Cl)cc2)cc1-c1cccnc1
MDA-MB-468 breast
  GI50: 0.493 µM
  TGI: 4.33 µM

## CCOC(=O)C(=Cc1ccccc1[N+](=O)[O-])C(=O)OCC
MDA-MB-468 breast
  GI50: 1.53 µM
  TGI: 4.68 µM

## O=c1nc(Nc2cccc(Cl)c2)oc2cc(Cl)oc(=O)c12
MDA-MB-468 breast
  GI50: 2.44 µM
  TGI: 6.75 µM

## NNc1cccc(/C=C/c2ccccc2)cc1=O
MDA-MB-468 breast
  GI50: 8.46 µM
  TGI: 90.7 µM

## C=C1C(=O)O[C@H]2[C@H]1CC/C(COC(=O)NCc1ccc(Cn3c(=O)sn(CCCCl)c3=O)cc1)=C\CC[C@@]1(C)O[C@@H]21
MDA-MB-468 breast
  GI50: 1.53 µM
  TGI: 4.33 µM

## O=C(c1ccc2ncc(-c3nc(NC4CC4)ncc3F)n2c1)N1CCOCC1
MDA-MB-468 breast
  GI50: 1.79 µM
  TGI: 4.34 µM

## Cc1cccc(-c2nc(Nc3ccc(C)c(S(N)(=O)=O)c3)c3ccccc3n2)c1
ACHN renal
  GI50: 4.8 µM
  TGI: 21 µM
PC-3 prostate
  GI50: 4.09 µM
  TGI: 55.4 µM
MDA-MB-435
  GI50: 10.5 µM
  TGI: 67.3 µM
MDA-MB-231 breast
  GI50: 4.04 µM
  TGI: 17.5 µM
SNB-75 CNS
  GI50: 13.1 µM
  TGI: 52 µM
BT-549 breast
  GI50: 15.8 µM
  TGI: 63.5 µM
SF-539 CNS
  GI50: 7.78 µM
  TGI: 27 µM
MALME-3M melanoma
  GI50: 13.9 µM
  TGI: 32.1 µM
RXF 393 renal
  GI50: 3.3 µM
  TGI: 11 µM
KM12 colon
  GI50: 3.32 µM
  TGI: > 100 µM
UACC-257 melanoma
  GI50: 18.3 µM
  TGI: 51.4 µM
TK-10 renal
  GI50: 15.3 µM
  TGI: 41.9 µM
HL-60(TB) leukemia
  GI50: 4.67 µM
  TGI: 61.5 µM
OVCAR-4 ovarian
  GI50: 8.5 µM
  TGI: > 100 µM
SN12C renal
  GI50: 11.5 µM
  TGI: 28.2 µM
NCI-H226 lung
  GI50: 11.6 µM
  TGI: 35.1 µM
HCT-15 colon
  GI50: 3.07 µM
  TGI: 10.8 µM
U251 CNS
  GI50: 8.08 µM
  TGI: 34.2 µM
A498 renal
  GI50: 8.25 µM
  TGI: 25.8 µM
HOP-62 NSCLC
  GI50: 11 µM
  TGI: 26.6 µM
EKVX NSCLC
  GI50: 6.18 µM
  TGI: 24.1 µM
CAKI-1 renal
  GI50: 5.78 µM
  TGI: 21.8 µM
SF-295 CNS
  GI50: 2610 nM
  TGI: 8.28 µM
COLO 205 colon
  GI50: 7.07 µM
  TGI: 19.8 µM
NCI-H460 lung
  GI50: 3.94 µM
  TGI: 25 µM
HS 578T breast
  GI50: 10.4 µM
  TGI: 61.1 µM
786-0 renal
  GI50: 5.68 µM
  TGI: 17.8 µM
DU-145 prostate
  GI50: 13.1 µM
  TGI: 69.2 µM
SK-OV-3 ovarian
  GI50: 17.6 µM
  TGI: 47.8 µM
M14 melanoma
  GI50: 9.55 µM
  TGI: 21.3 µM
OVCAR-5 ovarian
  GI50: 12.4 µM
  TGI: 27.4 µM
UACC-62 melanoma
  GI50: 13.6 µM
  TGI: 30.2 µM
MCF7 breast
  GI50: 3.16 µM
  TGI: 12.9 µM
SNB-19 CNS
  GI50: 10.5 µM
  TGI: 53 µM
SK-MEL-5 melanoma
  GI50: 11 µM
  TGI: 24.7 µM
T-47D breast
  GI50: 3.61 µM
  TGI: 16.7 µM
LOX IMVI melanoma
  GI50: 3.31 µM
  TGI: 12.5 µM
SK-MEL-2 melanoma
  GI50: 11.4 µM
  TGI: 32.1 µM
SK-MEL-28 melanoma
  GI50: 11.4 µM
  TGI: 28.8 µM
HCC-2998 colon
  GI50: 3.1 µM
  TGI: 10.8 µM
K-562 leukemia
  GI50: 3.47 µM
  TGI: 19 µM
NCI/ADR-RES ovarian
  GI50: 5.6 µM
  TGI: 35.9 µM
HCT-116 colon
  GI50: 5.84 µM
  TGI: 19.6 µM
NCI-H522 lung
  GI50: 2720 nM
  TGI: 7.93 µM
HT29 colon
  GI50: 4.67 µM
  TGI: 18.8 µM
HOP-92 NSCLC
  GI50: 6.46 µM
  TGI: 27.2 µM
CCRF-CEM leukemia
  GI50: 4.11 µM
  TGI: 25.8 µM
RPMI-8226 leukemia
  GI50: 4.38 µM
  TGI: 35 µM
OVCAR-8 ovarian
  GI50: 9.17 µM
  TGI: 43.4 µM
A549 NSCLC
  GI50: 6.51 µM
  TGI: 32.8 µM
OVCAR-3 ovarian
  GI50: 9.36 µM
  TGI: > 100 µM
MOLT-4 leukemia
  GI50: 3.73 µM
  TGI: 33.8 µM
NCI-H23 lung
  GI50: 13.3 µM
  TGI: 33.5 µM
IGROV1 ovarian
  GI50: 10.3 µM
  TGI: 32.7 µM
MDA-MB-468 breast
  GI50: 4.07 µM
  TGI: 16.5 µM
SF-268 CNS
  GI50: 11.8 µM
  TGI: > 100 µM
SW-620 colon
  GI50: 6.44 µM
  TGI: 24 µM
UO-31 renal
  GI50: 5.57 µM
  TGI: 27.1 µM
